Measured values: ChEMBL document CHEMBL3826956, “Cholinesterase inhibitory activity of isoquinoline alkaloids from three Cryptocarya species (Lauraceae)” (Bioorg Med Chem, 2016)

Legend:
[1] = biological target: Acetylcholinesterase (Electrophorus electricus) (UniProt O42275); assay: Inhibition of electric eel AChE at 100 ug/ml preincubated for 15 mins followed by addition of acetylthiocholine iodide as substrate measured after 30 mins by Ellman's microplate assay
[2] = biological target: Cholinesterase (Equus caballus) (UniProt P81908); assay: Inhibition of equine serum BChE at 100 ug/ml preincubated for 15 mins followed by addition of S-butyrylthiocholine chloride as substrate measured after 30 mins by Ellman's microplate assay
Sequence of Cholinesterase (Equus caballus) (P81908 whole entry): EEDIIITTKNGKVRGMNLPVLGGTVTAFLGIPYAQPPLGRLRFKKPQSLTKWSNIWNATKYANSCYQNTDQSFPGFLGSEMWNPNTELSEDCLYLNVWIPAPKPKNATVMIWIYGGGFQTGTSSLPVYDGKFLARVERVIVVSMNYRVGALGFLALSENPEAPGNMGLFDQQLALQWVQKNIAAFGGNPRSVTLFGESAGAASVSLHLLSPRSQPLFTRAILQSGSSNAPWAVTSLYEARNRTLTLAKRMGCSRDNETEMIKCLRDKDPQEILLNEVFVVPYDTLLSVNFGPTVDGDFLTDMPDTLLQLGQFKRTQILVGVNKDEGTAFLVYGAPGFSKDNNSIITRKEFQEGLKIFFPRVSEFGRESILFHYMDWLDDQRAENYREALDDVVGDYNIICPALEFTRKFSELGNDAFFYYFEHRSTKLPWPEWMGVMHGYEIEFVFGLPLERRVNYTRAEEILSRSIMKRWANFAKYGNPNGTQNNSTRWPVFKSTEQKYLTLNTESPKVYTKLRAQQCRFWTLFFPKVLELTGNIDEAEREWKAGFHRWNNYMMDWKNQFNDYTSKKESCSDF

[3] = biological target: T1, Cholinesterase (Equus caballus, UniProt P81908); assay: Inhibition of equine serum BChE preincubated for 15 mins followed by addition of S-butyrylthiocholine chloride as substrate measured after 30 mins by Ellman's microplate assay
T1 sequence (P81908 whole entry): as above

[4] = biological target: Acetylcholinesterase (Electrophorus electricus, UniProt O42275); assay: Inhibition of electric eel AChE preincubated for 15 mins followed by addition of acetylthiocholine iodide as substrate measured after 30 mins by Ellman's microplate assay
Sequence of Acetylcholinesterase (O42275 whole entry): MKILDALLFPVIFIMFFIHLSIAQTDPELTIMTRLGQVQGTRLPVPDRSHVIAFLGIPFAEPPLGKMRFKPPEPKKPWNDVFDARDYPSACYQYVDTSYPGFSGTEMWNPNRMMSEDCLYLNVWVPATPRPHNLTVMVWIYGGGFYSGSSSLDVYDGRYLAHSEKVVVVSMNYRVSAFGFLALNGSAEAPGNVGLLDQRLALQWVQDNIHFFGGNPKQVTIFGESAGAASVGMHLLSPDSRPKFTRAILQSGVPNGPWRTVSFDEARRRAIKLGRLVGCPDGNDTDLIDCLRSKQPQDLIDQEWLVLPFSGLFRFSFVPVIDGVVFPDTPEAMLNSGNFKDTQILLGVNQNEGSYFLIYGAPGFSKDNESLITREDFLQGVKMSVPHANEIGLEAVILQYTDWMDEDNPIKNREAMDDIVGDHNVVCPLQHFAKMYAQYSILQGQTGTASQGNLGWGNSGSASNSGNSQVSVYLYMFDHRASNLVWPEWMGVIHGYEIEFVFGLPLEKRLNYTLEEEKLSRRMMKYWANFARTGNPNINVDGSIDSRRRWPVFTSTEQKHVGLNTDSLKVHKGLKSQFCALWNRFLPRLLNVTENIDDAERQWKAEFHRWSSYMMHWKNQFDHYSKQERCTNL

[5] = Selectivity ratio, ratio of IC50 for equine serum BChE to electric eel AChE
[6] = Selectivity ratio, ratio of IC50 for electric eel AChE to equine serum BChE
[7] = biological target: T1, Cholinesterase; assay: Mixed-type inhibition of equine serum BChE preincubated for 15 mins followed by addition of S-butyrylthiocholine chloride as substrate measured after 30 mins by Lineweaver-Burk plot analysis

Sequence of Acetylcholinesterase (Electrophorus electricus) (O42275 24-633 limits assumed): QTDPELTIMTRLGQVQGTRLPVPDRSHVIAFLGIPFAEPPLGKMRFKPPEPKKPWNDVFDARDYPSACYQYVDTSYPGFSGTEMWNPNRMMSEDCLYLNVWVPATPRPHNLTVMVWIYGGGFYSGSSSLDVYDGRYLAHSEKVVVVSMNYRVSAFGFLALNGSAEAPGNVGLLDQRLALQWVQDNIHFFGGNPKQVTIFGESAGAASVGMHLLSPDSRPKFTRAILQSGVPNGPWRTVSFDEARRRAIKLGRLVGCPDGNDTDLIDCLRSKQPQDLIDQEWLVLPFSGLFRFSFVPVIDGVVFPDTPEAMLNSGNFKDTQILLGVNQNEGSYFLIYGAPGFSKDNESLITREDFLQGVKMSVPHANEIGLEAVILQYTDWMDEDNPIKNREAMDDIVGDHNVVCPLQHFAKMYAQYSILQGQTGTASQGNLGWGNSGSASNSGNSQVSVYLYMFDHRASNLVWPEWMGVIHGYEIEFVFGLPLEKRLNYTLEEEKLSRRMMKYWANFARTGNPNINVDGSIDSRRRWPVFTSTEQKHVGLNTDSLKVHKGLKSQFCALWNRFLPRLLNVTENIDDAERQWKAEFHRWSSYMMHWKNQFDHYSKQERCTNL

Structure (SMILES) | inhibition [1] [%] | inhibition [2] [%] | IC50 [3] [µM] | IC50 [4] [µM] | Ratio IC50 [5] | Ratio IC50 [6] | Ki [7] [µM]
COc1cc2c3c(c1O)C1(CCC(O)CC1)CC3NCC2 (stereo not given) | 27.9 | 52.1 | 288 | – | – | – | –
COc1ccc(C[C@H]2c3cc(O)c(OC)cc3CCN2C)cc1O [(S)-RETICULINE] | 53 | 84.1 | 65 | 301 | 0.22 | 4.63 | –
COc1cc2c(cc1O)C[C@H]1c3c(cc(OC)c(OC)c3-2)CCN1C | 38.8 | 51 | 219 | – | – | – | –
COc1cc2c3c(c1OC)-c1cc4c(cc1C[C@@H]3NCC2)OCO4 | 50.4 | 75.8 | 94.4 | 206 | 0.46 | 2.18 | –
COc1c(OC)c(OC)c2c(ccc3ccccc32)c1CCN(C)C | 31.6 | 95.2 | 3.95 | – | – | – | 6.72
COc1cc(CCN(C)C)c2ccc3ccccc3c2c1OC | 2.06 | 83.9 | 19.3 | – | – | – | –
COc1cc2c(cc1O)CCN(C)C2Cc1ccc(O)cc1 (stereo not given) | 14.9 | 37.3 | – | – | – | – | –
COc1cc2c(cc1O)C[C@@H]1NCCc3cc(OC)c(OC)c-2c31 | 17.5 | 22.6 | – | – | – | – | –
COc1ccc(C2=C(c3ccc(O)cc3)CN3CCC[C@@H]3C2)cc1OC | 51.4 | 59.4 | 167 | 202 | 0.83 | 1.21 | –
